Our source for the IC50 values is ChEMBL document CHEMBL1153825, “From a natural product lead to the identification of potent and selective benzofuran-3-yl-(indol-3-yl)maleimides as glycogen synthase kinase 3beta inhibitors that suppress proliferation and survival of pancreatic cancer cells” (J Med Chem, 2009).

pIC50: −log10 of the molar value.

The test system of one experiment is MIA PaCa-2. Kind of experiment: Growth inhibition of human MIAPaCa2 cells after 72 hrs by MTS assay. The note with it: MIA PaCa-2, 72 h. The format is functional, cell-based.
The test system of the next experiment is BXPC-3. Kind of experiment: Growth inhibition of human BxPC3 cells after 72 hrs by MTS assay. The format is functional, cell-based. The conditions noted are these: BXPC-3, 72 h.
In a further experiment the test system is HuP-T3. Kind of experiment: Growth inhibition of human HUPT3 cells after 72 hrs by MTS assay. The format is functional, cell-based. The note with it: HuP-T3, 72 h. On the technique in general: Tetrazolium assays rely on reduction of a dye to a coloured formazan, in cell work by metabolically active cells.
Experiment [1] has as its target Glycogen synthase kinase-3 beta (Homo sapiens, UniProt P49841). Kind of experiment: Inhibition of human GSK3-beta by scintillation counting.
For experiment [2], the target named is T1, Cyclin-dependent kinase 2 (Homo sapiens, UniProt P24941).
Experiment [3] deals with Cyclin-dependent kinase 1/cyclin B1 (Homo sapiens, UniProt P06493). Kind of experiment: Inhibition of CDK1/Cyclin B. In kind it is protein-complex assay.
The target of experiment [4] is T2, Serine/threonine-protein kinase Chk1 (Homo sapiens, UniProt O14757).
T2 sequence (O14757 whole entry): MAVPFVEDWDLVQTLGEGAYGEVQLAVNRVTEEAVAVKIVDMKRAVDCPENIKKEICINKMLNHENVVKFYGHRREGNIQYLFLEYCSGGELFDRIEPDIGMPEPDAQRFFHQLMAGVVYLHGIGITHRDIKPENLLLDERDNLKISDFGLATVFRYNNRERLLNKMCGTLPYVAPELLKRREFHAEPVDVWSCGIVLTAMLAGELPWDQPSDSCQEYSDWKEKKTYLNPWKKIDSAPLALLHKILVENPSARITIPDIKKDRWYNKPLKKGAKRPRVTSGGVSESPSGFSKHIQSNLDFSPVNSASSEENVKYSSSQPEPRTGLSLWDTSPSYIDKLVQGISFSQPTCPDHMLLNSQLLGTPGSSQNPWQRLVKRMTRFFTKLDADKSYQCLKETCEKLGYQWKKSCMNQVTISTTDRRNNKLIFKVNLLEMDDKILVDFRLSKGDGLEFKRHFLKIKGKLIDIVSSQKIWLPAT
Kind of experiment: Inhibition of CHK1.

The target in experiment [5] is RAC-gamma serine/threonine-protein kinase (Homo sapiens, UniProt Q9Y243). Description: Inhibition of AKT3 up to 50 uM.
Experiment [6] concerns the target RAF proto-oncogene serine/threonine-protein kinase (Homo sapiens, UniProt P04049). Description: Inhibition of cRAF up to 50 uM.
Experiment [7] has as its target Mitogen-activated protein kinase 3 (Homo sapiens, UniProt P27361). Kind of experiment: Inhibition of ERK1 up to 50 uM.
For experiment [8], the target named is T3, Inhibitor of nuclear factor kappa-B kinase subunit beta (Homo sapiens, UniProt O14920).
T3 sequence (O14920 whole entry): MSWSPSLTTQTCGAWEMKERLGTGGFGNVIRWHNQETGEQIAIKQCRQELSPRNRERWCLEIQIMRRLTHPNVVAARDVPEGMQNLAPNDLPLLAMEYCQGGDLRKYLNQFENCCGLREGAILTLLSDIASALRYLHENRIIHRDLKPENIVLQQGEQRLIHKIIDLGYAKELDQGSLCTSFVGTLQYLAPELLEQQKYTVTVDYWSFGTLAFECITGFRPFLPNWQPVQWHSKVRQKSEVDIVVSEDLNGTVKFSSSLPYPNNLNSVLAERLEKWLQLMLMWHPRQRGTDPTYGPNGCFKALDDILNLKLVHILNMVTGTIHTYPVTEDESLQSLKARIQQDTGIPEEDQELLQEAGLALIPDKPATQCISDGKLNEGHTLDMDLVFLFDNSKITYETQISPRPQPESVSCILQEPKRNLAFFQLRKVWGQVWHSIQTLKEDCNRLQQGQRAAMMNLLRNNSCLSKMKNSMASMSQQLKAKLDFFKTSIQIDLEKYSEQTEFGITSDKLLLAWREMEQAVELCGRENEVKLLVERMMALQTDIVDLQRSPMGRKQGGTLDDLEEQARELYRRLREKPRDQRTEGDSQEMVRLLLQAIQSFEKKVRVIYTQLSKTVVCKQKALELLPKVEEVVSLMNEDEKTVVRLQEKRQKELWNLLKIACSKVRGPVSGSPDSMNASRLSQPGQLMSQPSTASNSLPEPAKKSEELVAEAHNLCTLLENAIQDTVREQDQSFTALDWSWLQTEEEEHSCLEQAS
Description: Inhibition of IKK-beta up to 50 uM.

Experiment [9] has as its target T1, Cyclin-dependent kinase 2. The source holds these as a separate data set.
In experiment [10] the target is T4, Inhibitor of nuclear factor kappa-B kinase subunit alpha (Homo sapiens, UniProt O15111).
T4 sequence (O15111 whole entry): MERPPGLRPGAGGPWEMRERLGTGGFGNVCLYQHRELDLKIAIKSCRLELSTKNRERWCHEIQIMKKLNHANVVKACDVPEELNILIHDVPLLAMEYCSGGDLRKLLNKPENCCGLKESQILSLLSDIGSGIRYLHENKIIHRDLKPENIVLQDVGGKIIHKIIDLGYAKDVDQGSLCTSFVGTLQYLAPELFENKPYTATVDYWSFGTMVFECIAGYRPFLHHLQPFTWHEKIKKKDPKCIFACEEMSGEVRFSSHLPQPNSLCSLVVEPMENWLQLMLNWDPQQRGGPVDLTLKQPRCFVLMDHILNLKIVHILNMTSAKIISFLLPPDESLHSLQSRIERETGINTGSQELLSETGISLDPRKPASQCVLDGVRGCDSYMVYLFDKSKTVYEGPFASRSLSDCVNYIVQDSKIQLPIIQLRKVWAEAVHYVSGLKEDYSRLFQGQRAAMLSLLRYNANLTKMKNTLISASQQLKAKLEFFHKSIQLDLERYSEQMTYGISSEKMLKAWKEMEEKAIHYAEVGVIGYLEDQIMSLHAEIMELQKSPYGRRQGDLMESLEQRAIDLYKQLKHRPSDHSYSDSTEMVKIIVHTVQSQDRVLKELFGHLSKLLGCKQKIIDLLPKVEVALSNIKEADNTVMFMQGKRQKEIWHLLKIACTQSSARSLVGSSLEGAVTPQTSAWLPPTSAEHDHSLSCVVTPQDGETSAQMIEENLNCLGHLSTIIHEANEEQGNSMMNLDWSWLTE

Glycogen synthase kinase-3 beta, sequence (P49841 whole entry): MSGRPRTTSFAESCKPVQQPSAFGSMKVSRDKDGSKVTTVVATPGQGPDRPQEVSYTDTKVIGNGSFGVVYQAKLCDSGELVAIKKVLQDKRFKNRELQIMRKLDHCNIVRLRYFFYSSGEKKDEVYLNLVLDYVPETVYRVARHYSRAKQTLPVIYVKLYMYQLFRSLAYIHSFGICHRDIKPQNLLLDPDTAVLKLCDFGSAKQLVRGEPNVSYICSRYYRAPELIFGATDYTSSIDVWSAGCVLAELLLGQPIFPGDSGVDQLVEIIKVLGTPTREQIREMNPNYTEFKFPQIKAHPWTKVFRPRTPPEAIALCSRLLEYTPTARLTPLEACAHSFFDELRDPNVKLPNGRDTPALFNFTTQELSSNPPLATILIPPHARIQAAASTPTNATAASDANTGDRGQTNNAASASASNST
Mitogen-activated protein kinase 3, sequence (P27361 whole entry): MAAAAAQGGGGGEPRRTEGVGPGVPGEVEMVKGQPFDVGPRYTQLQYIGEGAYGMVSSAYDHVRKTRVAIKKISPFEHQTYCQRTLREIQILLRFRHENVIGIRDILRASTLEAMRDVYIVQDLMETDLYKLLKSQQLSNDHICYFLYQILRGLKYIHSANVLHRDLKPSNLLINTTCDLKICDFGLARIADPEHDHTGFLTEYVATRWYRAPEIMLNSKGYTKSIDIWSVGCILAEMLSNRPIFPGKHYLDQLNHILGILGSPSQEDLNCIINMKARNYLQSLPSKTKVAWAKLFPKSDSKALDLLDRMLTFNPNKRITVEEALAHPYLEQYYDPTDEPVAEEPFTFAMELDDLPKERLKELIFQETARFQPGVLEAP
Cyclin-dependent kinase 1/cyclin B1, sequence (P06493 whole entry): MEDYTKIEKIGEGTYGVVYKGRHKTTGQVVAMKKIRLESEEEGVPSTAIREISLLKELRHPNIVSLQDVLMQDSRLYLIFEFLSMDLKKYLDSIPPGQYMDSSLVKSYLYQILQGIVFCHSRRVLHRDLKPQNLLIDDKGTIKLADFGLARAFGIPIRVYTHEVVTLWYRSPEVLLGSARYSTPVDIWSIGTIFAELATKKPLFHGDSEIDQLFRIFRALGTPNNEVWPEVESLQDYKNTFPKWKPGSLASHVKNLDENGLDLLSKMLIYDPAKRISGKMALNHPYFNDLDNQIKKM
Cyclin-dependent kinase 1/cyclin B1, sequence (P14635 whole entry, further chain): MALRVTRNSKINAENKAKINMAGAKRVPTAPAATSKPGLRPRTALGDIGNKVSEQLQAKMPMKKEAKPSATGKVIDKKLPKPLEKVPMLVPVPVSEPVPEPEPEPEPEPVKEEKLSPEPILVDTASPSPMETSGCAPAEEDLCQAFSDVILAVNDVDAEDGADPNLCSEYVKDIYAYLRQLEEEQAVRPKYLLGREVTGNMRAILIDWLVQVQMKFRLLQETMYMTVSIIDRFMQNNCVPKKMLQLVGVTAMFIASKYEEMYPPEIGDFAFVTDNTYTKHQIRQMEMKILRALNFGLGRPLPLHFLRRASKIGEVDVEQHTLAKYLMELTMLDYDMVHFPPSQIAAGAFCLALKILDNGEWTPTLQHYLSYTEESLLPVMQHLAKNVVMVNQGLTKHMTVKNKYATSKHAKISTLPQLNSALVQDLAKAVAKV
RAF proto-oncogene serine/threonine-protein kinase, sequence (P04049 whole entry): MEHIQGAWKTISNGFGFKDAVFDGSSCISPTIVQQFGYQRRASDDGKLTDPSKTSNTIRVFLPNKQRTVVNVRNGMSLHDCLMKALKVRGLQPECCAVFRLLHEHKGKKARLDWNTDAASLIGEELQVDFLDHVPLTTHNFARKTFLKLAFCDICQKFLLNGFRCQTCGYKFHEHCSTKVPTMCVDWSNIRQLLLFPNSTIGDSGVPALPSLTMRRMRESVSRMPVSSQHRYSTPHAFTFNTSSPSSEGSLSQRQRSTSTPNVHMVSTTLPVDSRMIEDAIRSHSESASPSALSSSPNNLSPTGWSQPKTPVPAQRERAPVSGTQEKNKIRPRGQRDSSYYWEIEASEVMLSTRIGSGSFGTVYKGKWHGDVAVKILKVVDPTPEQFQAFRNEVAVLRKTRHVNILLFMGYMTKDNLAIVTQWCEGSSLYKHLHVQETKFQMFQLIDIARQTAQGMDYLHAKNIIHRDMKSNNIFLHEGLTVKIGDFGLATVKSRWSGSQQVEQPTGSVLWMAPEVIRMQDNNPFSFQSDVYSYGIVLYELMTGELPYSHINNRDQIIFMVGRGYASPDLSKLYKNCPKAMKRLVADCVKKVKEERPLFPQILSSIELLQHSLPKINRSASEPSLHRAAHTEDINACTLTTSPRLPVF
RAC-gamma serine/threonine-protein kinase, sequence (Q9Y243 whole entry): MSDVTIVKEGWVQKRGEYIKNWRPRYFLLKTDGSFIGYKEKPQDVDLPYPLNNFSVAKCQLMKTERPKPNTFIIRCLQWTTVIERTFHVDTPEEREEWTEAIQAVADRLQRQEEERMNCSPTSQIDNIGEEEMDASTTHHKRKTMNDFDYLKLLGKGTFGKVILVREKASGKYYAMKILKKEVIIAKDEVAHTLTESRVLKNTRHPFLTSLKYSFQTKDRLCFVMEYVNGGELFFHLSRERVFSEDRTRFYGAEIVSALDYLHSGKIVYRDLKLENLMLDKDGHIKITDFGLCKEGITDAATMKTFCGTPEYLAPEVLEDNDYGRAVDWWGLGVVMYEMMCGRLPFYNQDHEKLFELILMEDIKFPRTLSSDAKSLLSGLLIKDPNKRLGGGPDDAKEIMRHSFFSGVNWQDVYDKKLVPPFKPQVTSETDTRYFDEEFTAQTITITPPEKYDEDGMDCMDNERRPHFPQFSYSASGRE

The term pIC50 denotes the negative decadic logarithm of the IC50, by convention in mol/L. Read a high pIC50 as a small IC50. For `COc1ccc(CNC(=O)Nc2ncc([N+](=O)[O-])s2)cc1`, the figures for the pIC50 in the experiment on MIA PaCa-2, with BXPC-3 and with HuP-T3 were 4.54, 4.85 and 4.66, respectively.

Take `COc1cccc2c(C3=C(c4cn(C)c5cc(C(F)(F)F)ccc45)C(=O)NC3=O)coc12`: the values for the pIC50 in the experiment with MIA PaCa-2, in the experiment with BXPC-3 and in the experiment on HuP-T3 were 5.10, 5.22 and 5.22, respectively.

Consider `COc1cc2c(C3=C(c4coc5ccccc45)C(=O)NC3=O)cn(C)c2cc1Cl`, for which the pIC50 with MIA PaCa-2, in the experiment on BXPC-3 and in the experiment with HuP-T3 was below 4.30 each time.

With `Cn1cc(C2=C(c3coc4ccc(F)cc34)C(=O)NC2=O)c2cc(C#CC3CC3)ccc21`, the results for the pIC50 in the experiment with MIA PaCa-2, in the experiment on BXPC-3 and with HuP-T3 were 4.47, below 4.30 and below 4.30, respectively.

As for `Cn1cc(C2=C(c3coc4ccccc34)C(=O)NC2=O)c2cc(F)c(Cl)cc21`, the pIC50 in the experiment with MIA PaCa-2 is 5.52; with BXPC-3 it was 5.70; in the experiment with HuP-T3 it was 5.70.

In experiment [1], `Cn1cc(C2=C(c3coc4cc(OCC5CCC5)ccc34)C(=O)NC2=O)c2cc(F)c(Cl)cc21` showed a pIC50 of 5.39.

In the case of `Cn1cc(C2=C(c3coc4ccccc34)C(=O)NC2=O)c2cc(Br)ccc21`, the negative-log IC50 (pIC50) in the experiment on MIA PaCa-2 is 4.52; with HuP-T3 it was 4.37.

Compound `Cn1cc(C2=C(c3coc4cc(CO)ccc34)C(=O)NC2=O)c2cc(Br)ccc21` showed a pIC50 in experiment [1] of 9.29.

On to `Cn1cc(C2=C(c3coc4cc(OCC5CC5)ccc34)C(=O)NC2=O)c2cc(F)c(Cl)cc21`, for which the pIC50 in experiment [1] is 5.89.

For `COCc1cccc2c(C3=C(c4coc5ccccc45)C(=O)NC3=O)cn(C)c12`, the pIC50 with MIA PaCa-2 and in the experiment with BXPC-3 was below 4.30 in each case.

For `Cn1cc(C2=C(c3coc4cc(F)c(F)cc34)C(=O)NC2=O)c2ccc3ccccc3c21`, the negative-log IC50 (pIC50) with MIA PaCa-2 was 4.77; in the experiment with BXPC-3, 5.15; in the experiment with HuP-T3, 5.22.

`COc1cccc2c(C3=C(c4cn(C)c5ccc(Br)cc45)C(=O)NC3=O)coc12`: the pIC50 in experiment [1] was 8.12; in [2], 5.94.

With `COc1ccc2c(C3=C(c4cn(C)c5cc(Cl)c(F)cc45)C(=O)NC3=O)coc2c1`, in experiment [1], the pIC50 is 6.06.

Turning to `Cn1cc(C2=C(c3coc4ccccc34)C(=O)NC2=O)c2cc(I)ccc21`, the pIC50 was 7.46 in [1] and below 4.30 in the experiment with HuP-T3.

In turn, `Cn1cc(C2=C(c3coc4ccc(F)cc34)C(=O)NC2=O)c2cc(Cl)ccc21` had a pIC50 in [1] of 7.38.

For `COc1cccc2c(C3=C(c4cn(C)c5cc(I)c(F)cc45)C(=O)NC3=O)coc12`, the pIC50 in experiment [3], in [4], in experiment [2], in experiment [9] and in experiment [10] was below 4.30 each time. Further, the IC50 result in experiment [5], in experiment [6], in experiment [7] and in experiment [8] was “Not Active” in each case.

Turning to `Cn1cc(C2=C(c3ccc(Cl)cc3Cl)C(=O)NC2=O)c2ccccc21` [SB-216763], the pIC50 with MIA PaCa-2 was 4.60.
